# Tests used:
# [1] = test system: A549-ACE2 infected with SARS-CoV-2; assay: SARS-CoV-2 infection rate relative to DMSO; higher = more infection; conditions: 24 h
# A549-ACE2 [2] = assay: phospholipidosis EC50; higher = less potent phospholipidosis inducer
# [3] = test system: A549-ACE2 infected with SARS-CoV-2; assay: cell count relative to DMSO; higher = less toxic; conditions: 24 h
# Calu-3 [4] = assay: relative viability EC50 (midpoint between 100% and the lowest measured viability); higher = less toxic; conditions: 72 h
# Caco-2 [5] = assay: as above; conditions: 72 h
# Vero E6 [6] = assay: as above; conditions: 72 h
# [7] = test system: A549-ACE2 infected with SARS-CoV-2; assay: morphology score (similarity to uninfected cells); higher = more like uninfected cells; conditions: 24 h
# Calu-3 [8] = assay: cell viability relative to DMSO; higher = less toxic; conditions: 72 h
# HepG2 [9] = assay: as above; conditions: 72 h
# Caco-2 [10] = assay: as above; conditions: 72 h
# Vero E6 [11] = assay: as above; conditions: 72 h
# U2OS [12] = assay: as above; conditions: 72 h
# Calu-3 [13] = assay: drug sensitivity score (DSS) for viability; higher = more toxic; extreme values may be limits of the assay; conditions: 72 h
# HepG2 [14] = assay: as above; conditions: 72 h
# Caco-2 [15] = assay: as above; conditions: 72 h
# Vero E6 [16] = assay: as above; conditions: 72 h
# U2OS [17] = assay: as above; conditions: 72 h
# A549-ACE2 [18] = assay: drug-induced phospholipidosis relative to tamoxifen; higher = more phospholipidosis
# HepG2 [19] = assay: relative viability EC50 (midpoint between 100% and the lowest measured viability); higher = less toxic; conditions: 72 h
# U2OS [20] = assay: as above; conditions: 72 h
smiles,measurement,setting,value
COCC(=O)O[C@]1(CCN(C)CCCc2nc3ccccc3[nH]2)CCc2cc(F)ccc2[C@@H]1C(C)C [mibefradil],SARS-CoV-2 infection rate,[1]; 0.3 µM,102%
same,SARS-CoV-2 infection rate,[1]; 3 µM,32%
same,SARS-CoV-2 infection rate,[1]; 10 µM,9%
same,SARS-CoV-2 infection rate,[1]; 30 µM,84%
same,phospholipidosis EC50,A549-ACE2 [2]; 24 h,2940 nM
same,phospholipidosis EC50,A549-ACE2 [2]; 48 h,4350 nM
same,phospholipidosis EC50,A549-ACE2 [2]; 72 h,7830 nM
same,cell count,[3]; 0.3 µM,100%
same,cell count,[3]; 3 µM,125%
same,cell count,[3]; 10 µM,119%
same,cell count,[3]; 30 µM,12%
same,relative viability EC50,Calu-3 [4],3240 nM
same,relative viability EC50,Caco-2 [5],1610 nM
same,relative viability EC50,Vero E6 [6],> 10000 nM
same,morphology score,[7]; 0.3 µM,-0.1
same,morphology score,[7]; 3 µM,0.85
same,morphology score,[7]; 10 µM,0.71
same,morphology score,[7]; 30 µM,-0.08
same,cell viability,Calu-3 [8]; 1 nM,99.8%
same,cell viability,Calu-3 [8]; 10 nM,105%
same,cell viability,Calu-3 [8]; 100 nM,109%
same,cell viability,Calu-3 [8]; 1000 nM,101%
same,cell viability,Calu-3 [8]; 10000 nM,7.2%
same,cell viability,HepG2 [9]; 1 nM,99%
same,cell viability,HepG2 [9]; 10 nM,97.7%
same,cell viability,HepG2 [9]; 100 nM,88.2%
same,cell viability,HepG2 [9]; 1000 nM,98.3%
same,cell viability,HepG2 [9]; 10000 nM,50.3%
same,cell viability,Caco-2 [10]; 1 nM,101%
same,cell viability,Caco-2 [10]; 10 nM,90.3%
same,cell viability,Caco-2 [10]; 100 nM,101%
same,cell viability,Caco-2 [10]; 1000 nM,87.4%
same,cell viability,Caco-2 [10]; 10000 nM,45.8%
same,cell viability,Vero E6 [11]; 1 nM,94.7%
same,cell viability,Vero E6 [11]; 10 nM,98.8%
same,cell viability,Vero E6 [11]; 100 nM,92.9%
same,cell viability,Vero E6 [11]; 1000 nM,91.4%
same,cell viability,Vero E6 [11]; 10000 nM,89%
same,cell viability,U2OS [12]; 1 nM,103%
same,cell viability,U2OS [12]; 10 nM,97.9%
same,cell viability,U2OS [12]; 100 nM,98.7%
same,cell viability,U2OS [12]; 1000 nM,90.9%
same,cell viability,U2OS [12]; 10000 nM,65.6%
same,drug sensitivity score,Calu-3 [13],5.1
same,drug sensitivity score,HepG2 [14],2.8
same,drug sensitivity score,Caco-2 [15],4.9
same,drug sensitivity score,Vero E6 [16],0
same,drug sensitivity score,U2OS [17],3
same,drug-induced phospholipidosis,"A549-ACE2 [18]; 0.3 µM, 24 h",-2.56%
same,drug-induced phospholipidosis,"A549-ACE2 [18]; 0.3 µM, 48 h",0.45%
same,drug-induced phospholipidosis,"A549-ACE2 [18]; 0.3 µM, 72 h",4.04%
same,drug-induced phospholipidosis,"A549-ACE2 [18]; 0.833333 µM, 24 h",5.28%
same,drug-induced phospholipidosis,"A549-ACE2 [18]; 0.833333 µM, 48 h",7.22%
same,drug-induced phospholipidosis,"A549-ACE2 [18]; 0.833333 µM, 72 h",7.42%
same,drug-induced phospholipidosis,"A549-ACE2 [18]; 3.33333 µM, 24 h",65.2%
same,drug-induced phospholipidosis,"A549-ACE2 [18]; 3.33333 µM, 48 h",63.5%
same,drug-induced phospholipidosis,"A549-ACE2 [18]; 3.33333 µM, 72 h",45.4%
same,drug-induced phospholipidosis,"A549-ACE2 [18]; 6.66667 µM, 24 h",87.9%
same,drug-induced phospholipidosis,"A549-ACE2 [18]; 6.66667 µM, 48 h",96.7%
same,drug-induced phospholipidosis,"A549-ACE2 [18]; 6.66667 µM, 72 h",91.8%
same,drug-induced phospholipidosis,"A549-ACE2 [18]; 10 µM, 24 h",115%
same,drug-induced phospholipidosis,"A549-ACE2 [18]; 10 µM, 48 h",118%
same,drug-induced phospholipidosis,"A549-ACE2 [18]; 10 µM, 72 h",122%
same,drug-induced phospholipidosis,"A549-ACE2 [18]; 30 µM, 24 h",45.3%
COC[C@H](NC(=O)c1cnc(C)s1)C(=O)N[C@@H](COC)C(=O)N[C@@H](Cc1ccccc1)C(=O)[C@@]1(C)CO1 [oprozomib],SARS-CoV-2 infection rate,[1]; 0.1 µM,76%
same,SARS-CoV-2 infection rate,[1]; 0.3 µM,95%
same,SARS-CoV-2 infection rate,[1]; 1 µM,64%
same,SARS-CoV-2 infection rate,[1]; 3 µM,33%
same,cell count,[3]; 0.1 µM,87%
same,cell count,[3]; 0.3 µM,83%
same,cell count,[3]; 1 µM,74%
same,cell count,[3]; 3 µM,59%
same,relative viability EC50,Calu-3 [4],60.7 nM
same,relative viability EC50,HepG2 [19],66.1 nM
same,relative viability EC50,Caco-2 [5],40.9 nM
same,relative viability EC50,Vero E6 [6],209 nM
same,relative viability EC50,U2OS [20],109 nM
same,morphology score,[7]; 0.1 µM,0.41
same,morphology score,[7]; 0.3 µM,0.31
same,morphology score,[7]; 1 µM,0.24
same,morphology score,[7]; 3 µM,0.24
same,cell viability,Calu-3 [8]; 1 nM,92.4%
same,cell viability,Calu-3 [8]; 10 nM,102%
same,cell viability,Calu-3 [8]; 100 nM,25.4%
same,cell viability,Calu-3 [8]; 1000 nM,4.2%
same,cell viability,Calu-3 [8]; 10000 nM,4.5%
same,cell viability,HepG2 [9]; 1 nM,114%
same,cell viability,HepG2 [9]; 10 nM,99.3%
same,cell viability,HepG2 [9]; 100 nM,27.5%
same,cell viability,HepG2 [9]; 1000 nM,4.6%
same,cell viability,HepG2 [9]; 10000 nM,-0.1%
same,cell viability,Caco-2 [10]; 1 nM,103%
same,cell viability,Caco-2 [10]; 10 nM,94.8%
same,cell viability,Caco-2 [10]; 100 nM,18.9%
same,cell viability,Caco-2 [10]; 1000 nM,8.5%
same,cell viability,Caco-2 [10]; 10000 nM,5.5%
same,cell viability,Vero E6 [11]; 1 nM,106%
same,cell viability,Vero E6 [11]; 10 nM,103%
same,cell viability,Vero E6 [11]; 100 nM,72.4%
same,cell viability,Vero E6 [11]; 1000 nM,16.3%
same,cell viability,Vero E6 [11]; 10000 nM,4.2%
same,cell viability,U2OS [12]; 1 nM,103%
same,cell viability,U2OS [12]; 10 nM,93.8%
same,cell viability,U2OS [12]; 100 nM,53.9%
same,cell viability,U2OS [12]; 1000 nM,0.2%
same,cell viability,U2OS [12]; 10000 nM,-0.3%
same,drug sensitivity score,Calu-3 [13],25.9
same,drug sensitivity score,HepG2 [14],26.4
same,drug sensitivity score,Caco-2 [15],27.4
same,drug sensitivity score,Vero E6 [16],18.7
same,drug sensitivity score,U2OS [17],23.3
same,drug-induced phospholipidosis,"A549-ACE2 [18]; 0.3 µM, 24 h",-19.8%
same,drug-induced phospholipidosis,"A549-ACE2 [18]; 0.833333 µM, 24 h",-14.9%
same,drug-induced phospholipidosis,"A549-ACE2 [18]; 3.33333 µM, 24 h",-36.6%

# — the supplement of paper PMC13380429
